Tests used:
HT-29 cells = test: MTT cell growth assay, HT-29; assay type: cell-based, human; settings: at 24 h; read-out: Inhibition of HT-29 cell growth IC50
[1] = system: survivin, Bcl-2, c-IAP-1, c-IAP-2, and TRAF-1; test: Western blot of NF-κB-dependent anti-apoptotic gene products in BxPC-3 cells; assay type: cell-based, human; settings: at 8 h
Protocol: For Western blotting, the proteins from both cytoplasmic extracts and nuclear extracts were separated by SDS-polyacrylamide gel electrophoresis and transferred onto PVDF membranes (Millipore). The membranes were blocked in 5% nonfat dry milk-TBS-T (20 mM Tris-HCl, pH 7.5, 500 mM NaCl. 0.3% Tween 20) at room temperature (RT) for an hour and probed with anti-annexin 1, c-IAP-1, c-IAP-2, and TRAF-1 (Santa Cruz Biotechnology, Inc. CA), and anti-Bcl-2 antibodies (Cell Signaling Technology), in 5% nonfat dry milk-TBS-T at 4° C. overnight. The blots were washed three times with TBS-T for 5 min each wash and incubated with horseradish peroxidase-conjugated secondary antibody (Santa Cruz) in 5% nonfat dry milk-TBS-T at RT for an hour. After five washes with TBS-T, the blots were developed with the enhanced chemiluminescence system (ECL™ Western Blotting System, Amersham Biosciences) and exposed to x-ray film according to the manufacturer's instructions. Protein loading was normalized using anti-β-actin antibodies (Santa Cruz Biotechnology, Inc).

pancreatic cancer = settings: animal tumor model; cited from earlier work
NF-κB p65 [2] = test: Co-immunoprecipitation of annexin 1 with p65, BxPC-3 cells; assay type: cell-based, human; settings: 3 h, NO-ASA 20 μM or Dex 4 μM
Protocol: (§1) The gel shift assays were carried out according to the manufacturer's protocol (Panomics). Nuclear proteins (10 μg) from each sample were mixed with 10 ng biotinylated p65 double-stranded oligonucleotide probes (5′-[…]-3′ and its complement) (SEQ ID NO:9) in the presence of 1 μg Poly(I/C) DNA. The mixture was incubated at room temperature for 30 min. The binding complex was then resolved using a 6% polyacrylamide/glycerol gel in 0.5% Tris-borate-EDTA, transferred onto a nylon membrane, and fixed on the membrane by UV cross-linking The biotin-labeled probe was detected with streptavidin-horseradish peroxidase. Co-immunoprecipitation was performed as follows: about 500 μg of cell extracts were incubated overnight with 5 μg of agarose-conjugated anti-p65 (Santa Cruz Biotechnology) or anti-annexin 1 antibody (Santa Cruz, Calif.). The precipitate was washed five times with washing buffer (Santa Cruz Biotechnology), dissolved in 2× Laemmli buffer, boiled, and separated by SDS-PAGE and detected by Western blot analysis using ECL™ (Amersham Biosciences) as described above. Control experiments were performed by using rabbit IgG for p65 and mouse IgG2b for annexin 1, respectively (Santa Cruz Biotechnology).

NF-κB p65 [3] = test: Co-localization of annexin 1 and p65 in intestinal epithelial cells of treated mice; assay type: in vivo; settings: NO-ASA 100 mg/kg, 7 days
Protocol: A mouse model of multiple intestinal neoplasia, the Min mice, and the congenic parent wild-type mice were used to test the in vivo action of NO-ASA in the induction of annexin 1. Both wild-type and Min mice were treated for 7 days with vehicle or NO-ASA 100 mg/kg. After 7 days of treatment, the mice were sacrificed and the epithelial cells were evaluated as in Example 6 by confocal microscopy.

Bcl-xL = test: NF-κB dependent gene (Bcl-xL) expression in epithelial cells of treated mice; assay type: in vivo; settings: wild-type and Min mice
Protocol: To assess whether these changes occur in vivo, the inventors studied isolated small intestine epithelial cells from Min mice and the corresponding wild type mice C57BL/6J (of which the Min mice are a congenic derivative) treated with NO-ASA 100 mg/kg or Dex 10 mg/kg daily for 7 days. Min (multiple intestinal neoplasia), a mutant allele of the murine APC (adenomatous polyposis coli) locus, encodes a nonsense mutation at codon 850. Heterozygous Min mutants spontaneously develop tumors in the intestine and represent a model of intestinal carcinogenesis (M. Lipkin et al., Ann. N.Y. Acad. Sci. 889:14-19 (1999); A. Moser, H. Pitot, W. Dove, Science 247:322-324 (1990)). The levels of annexin 1 were increased in both Min and wild-type mice treated with either NO-ASA or Dex (FIG. 7A and FIG. 8A). The induction of annexin 1 by NO-ASA or Dex was accompanied by the inhibition of NF-κB activity (FIGS. 7B and 8B).

NF-κB = test: EMSA of NF-κB binding to κB probe, nuclear extract of treated BxPC-3 cells; assay type: cell-based, human; settings: BxPC-3 nuclear extract, 3 h
Protocol: as §1, with “Biotechnology). […]” for “Biotechnology).”

NF-κB p65 [4] = test: Confocal microscopy co-localization of annexin 1 and p65, BxPC-3 cells; assay type: cell-based, human; settings: 3 h, NO-ASA 20 μM or Dex 4 μM
Protocol: BxPC-3 cells were seeded on cover-glasses in a 12-well plate for 24 h. The cells were exposed to 10 or 20 μM NO-ASA or 2 or 4 μM Dex for 3 h, fixed with 4% paraformaldehyde in PBS containing 30 mM sucrose, permeabilized with 0.2% saponin in PBS containing 30 mM sucrose, and blocked with 5% normal goat serum in PBS containing 1% BSA. The cells were incubated with mouse monoclonal IgG2b anti-annexin 1 (Santa Cruz Biotechnology) and rabbit monoclonal IgG anti-p65 (Cell Signaling, MA) at RT for 1 h. After three washes with PBS containing 1% BSA, the cells were incubated with Alexa555 conjugated donkey anti-mouse IgG (Molecular Probes) and Alexa 488 conjugated goat anti-rabbit IgG (Molecular Probes) at RT for an hour. Images were acquired with a Zeiss LSM 510 META NLO Two-Photon Laser Scanning Image Confocal Microscope and the colocalization scores were generated by the Colocalization Macro program. The control experiments were performed using non-specific mouse IgG2b and/or rabbit IgG. Red fluorescence localized annexin 1, green fluorescence localized p65 (NF-κB) and co-localization of the two proteins generated yellow fluorescence.

For nitric oxide-donating aspirin [NO-ASA], the IC50 (HT-29 cells) is listed as 18.8 µM, the “expression of NF-κB-dependent anti-apoptotic genes survivin, Bcl-2, c-IAP-1, c-IAP-2, TRAF-1” value [1] is listed as “suppressed the expression” and the “prevention of pancreatic cancer” value (pancreatic cancer) is listed as “almost completely prevents pancreatic cancer”. For the same substance, the “co-immunoprecipitation of annexin 1 with p65” value (NF-κB p65 [2]) was “co-immunoprecipitated with p65”, the “colocalization of annexin 1 and p65 in intestinal cells” value (NF-κB p65 [3]; Min mice) was “greatly enhanced” and the “colocalization of annexin 1 and p65 in intestinal cells” value (NF-κB p65 [3]; wild type mice) was “modest but significant colocalization”. The “NF-κB dependent gene expression (Bcl-xL)” value (Bcl-xL) was “inhibited NF-κB dependent gene expression”, the “binding of NF-κB to the DNA probe (EMSA)” value (NF-κB) was “inhibited the binding of NF-κB to the DNA probe in a concentration-dependent manner” and the “binding of NF-κB to the DNA probe (EMSA) at 20 μM” value (NF-κB; 20 μM NO-ASA) was “substantial suppression of binding”. For the same substance, the “co-localization of annexin 1 and p65” value (NF-κB p65 [4]) was “co-localize most strongly in the nucleus”.

Reference: patent US8691764B2, “Inhibitors of NF-κB activity” (The Research Foundation for the State University of New York, priority 2007, dated 2014)
